Data published in article PMC7862291, “Full-length in meso structure and mechanism of rat kynurenine 3-monooxygenase inhibition” (Communications Biology, 2021).
pIC50: −log10 of the molar value. Values joined by “and” are separate entries in the source; they are usually repeats but may differ in a detail not shown here. Equal values may be shown once.

Experiments:
[1] = molecular target: T1, hKMO (Homo sapiens, UniProt O15229); assay: Human KMO enzyme (cell-free) assay, NADPH consumption by absorbance; assay type: biochemical
T1 construct: purchased Origene
T1 sequence (O15229 whole entry): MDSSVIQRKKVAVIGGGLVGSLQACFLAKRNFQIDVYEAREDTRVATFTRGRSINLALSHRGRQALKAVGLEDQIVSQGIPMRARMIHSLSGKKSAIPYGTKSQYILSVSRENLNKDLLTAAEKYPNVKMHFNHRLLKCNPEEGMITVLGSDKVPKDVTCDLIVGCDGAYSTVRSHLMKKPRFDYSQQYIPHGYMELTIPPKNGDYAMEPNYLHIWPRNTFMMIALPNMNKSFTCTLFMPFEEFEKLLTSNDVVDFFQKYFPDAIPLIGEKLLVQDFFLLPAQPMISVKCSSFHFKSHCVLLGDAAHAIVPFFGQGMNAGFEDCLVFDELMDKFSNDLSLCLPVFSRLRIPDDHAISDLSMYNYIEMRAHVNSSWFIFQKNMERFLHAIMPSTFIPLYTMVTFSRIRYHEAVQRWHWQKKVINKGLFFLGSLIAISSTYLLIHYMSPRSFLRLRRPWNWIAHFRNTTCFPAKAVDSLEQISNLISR
Description: (§1) Human KMO was purchased from Origene and used to assay compounds. Full-length Rat-KMO purified for crystallisation was used to assay compounds. Full-length Rat-KMO-expressing membranes were used for mutant assays (Fig. 4b) only. […] Images were taken using Odyssey CLX (LI-COR Biosciences) and quantified using ImageStudio2.0 (LI-COR Biosciences) software.
(§2) Test compounds were dissolved in DMSO and diluted with assay buffer containing 50 mM HEPES, 2 mM MgCl2, 0.5 mM EGTA, 1 mM DTT, 0.05% Tween20 and 0.005% of antiform SI (pH = about 7.9) to prepare a 4% DMSO solution. […] After 5 min of pre-incubation, reactions were started by adding 10 μL of substrate solution containing 2.4 mM kynurenine and 0.6 mM NADPH. Reactions were run for 90 min at 30 °C, then terminated by adding 5 μL of stop buffer (40 mM maleimide, 2 mM WST-9 and 0.1 mM 1-methoky PMS in water). […] Liposomal assays were performed in the same manner except that the composition of the assay buffer was changed (phosphate-buffered saline, 2 mM MgCl2, 1 mM DTT, 0.05% Tween 20).
(§3) Compound assays were analysed and plotted on graphs using Prism (GraphPad Software Inc. San Diego, CA, USA).

[2] = molecular target: T2, Rat KMO (Rattus norvegicus, UniProt O88867); assay: Rat KMO enzyme (cell-free) assay, NADPH consumption by absorbance; assay type: biochemical
T2 construct: The GST-tagged full-length KMO (1-478) baculovirus vector contained a thrombin cleavage site; GST (thrombin cleavage site between GST and KMO) (N, cleaved yes); made in house; host or cells: Spodoptera frugiperda (Sf9), baculovirus
T2 sequence (O88867 whole entry): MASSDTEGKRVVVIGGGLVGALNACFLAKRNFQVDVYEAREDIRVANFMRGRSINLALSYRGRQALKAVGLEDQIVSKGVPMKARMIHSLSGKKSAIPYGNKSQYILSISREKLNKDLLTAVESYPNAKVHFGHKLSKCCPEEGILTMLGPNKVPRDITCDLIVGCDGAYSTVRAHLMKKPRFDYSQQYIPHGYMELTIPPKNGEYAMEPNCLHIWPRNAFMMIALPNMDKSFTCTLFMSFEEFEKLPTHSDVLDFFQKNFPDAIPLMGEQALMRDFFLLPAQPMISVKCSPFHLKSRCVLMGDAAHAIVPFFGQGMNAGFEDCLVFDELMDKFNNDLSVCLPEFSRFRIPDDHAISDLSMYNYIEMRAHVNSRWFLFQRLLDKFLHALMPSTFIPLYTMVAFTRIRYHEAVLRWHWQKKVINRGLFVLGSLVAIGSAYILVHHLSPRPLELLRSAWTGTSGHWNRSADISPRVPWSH
Description: as §1, §2, §3

[3] = molecular target: T3, HEK293 cells stably expressing human KMO (Homo sapiens, UniProt O15229); assay: Cell-based human KMO inhibition assay (LC/MS of 3-hydroxykynurenine)
T3 construct: expressed in transfected cells
T3 sequence (O15229 whole entry): as the sequence (O15229 whole entry) above
Description: (§4) HEK293 cells stably expressing human or rat KMO were maintained in DMEM containing 10% fetal bovine serum, 50 units/mL penicillin, 50 μg/mL streptomycin and 0.2 mg⁄mL zeocine. […] After 2 overnights, the medium was replaced with 10 μL/well of assay buffer (1 × HBSS containing 20 mM HEPES). Ten microliters per well of the diluted test compounds (final, 0–30 μM, 0.3% DMSO) were added to the respective wells. After ~30 min of pre-incubation at 37 °C, reactions were started by adding 20 μL of substrate solution containing 0.2 mM kynurenine. Reactions were run for 2 h at 37 °C, the assay buffer was discarded and the plate was immediately frozen and stored at −30 °C until LC/MS analysis.
(§5) An 80 µL volume of cold acetonitrile with 2% formic acid was added to the cell pellet in a 384-well plate and centrifuged at 3000 rpm for 10 min at 4 °C. A 40 µL volume of the supernatant was transferred to a new 384-well plate and evaporated to dryness under nitrogen gas at 45 °C. The residue was reconstituted in 100 µL of acetonitrile/water (10:90, v/v) with 0.1% formic acid, and 1 µL was injected into the LC-MS/MS system.
(§6) LC/MS/MS was performed on a Shimadzu UFLC Nexera X2 (Shimadzu Corporation, Japan) and an QTRAP® 5500 LC-MS/MS System (SCIEX, Framingham, USA). Chromatographic separation was performed using an Allure PFP Propyl analytical column (5 µm, 2.1 × 100 mm) maintained at 50 °C. The autosampler temperature was set at 15 °C. The mobile phase consisted of formic acid/water/acetonitrile/methanol (0.5/500/250/250, v/v/v/v) and the flow rate was set at 0.3 mL/min. 3-hydroxykynurenine was eluted from the LC column at a retention time of 1.2 min. The MS system was operated using electrospray ionization (ESI) in positive mode. The optimum conditions were curtain gas, 20 psi; ion spray voltage, 5500 V; heated nebulizer temperature (TEM), 700 °C; nebulizing gas (GS1), 70 psi; and heater gas (GS2), 70 psi. […] Analyst® software (SCIEX, Framingham, USA) was used for system control and MultiQuant™ Software (SCIEX, Framingham, USA) was used for data analysis.
as §3

[4] = molecular target: T4, HEK293 cells stably expressing rat KMO (Rattus norvegicus, UniProt O88867); assay: Cell-based rat KMO inhibition assay (LC/MS of 3-hydroxykynurenine)
T4 construct: expressed in transfected cells
T4 sequence (O88867 whole entry): as the sequence (O88867 whole entry) above
Description: as §4, §5, §6, §3

Question: `Cc1cnn(-c2cccc(C(=O)O)c2)c1-c1ccccc1` [Compound 1] was tested. Which pIC50 ([1]; cell-free enzyme assay, high kynurenine, read-out: Human KMO IC50) did it give?
Answer: 6.80

Question: And the “inhibition rate, Hs-KMO cell-free assay (Figure 1A source data)” value (from here on “inhibition rate, Hs-KMO cell-free assay”) ([1]; conc 0.03 μM, duplicates)?
Answer: 13.527%

Question: And the inhibition at 0.03 µM ([1]; conc 0.03 μM, duplicates, read-out: inhibition rate, Hs-KMO cell-free assay (Figure 1A source data))?
Answer: 15.1%

Question: What about the “inhibition rate, Hs-KMO cell-free assay” value ([1]; conc 0.1 μM, duplicates) of the same molecule?
Answer: 37.639%

Question: And the inhibition at 0.1 µM ([1]; conc 0.1 μM, duplicates, read-out: inhibition rate, Hs-KMO cell-free assay (Figure 1A source data))?
Answer: 41.4%

Question: And the “inhibition rate, Hs-KMO cell-free assay” value ([1]; conc 0.3 μM, duplicates)?
Answer: 65.813%

Question: What about the inhibition at 0.3 µM ([1]; conc 0.3 μM, duplicates, read-out: inhibition rate, Hs-KMO cell-free assay (Figure 1A source data)) of the same molecule?
Answer: 66.6%

Question: What about the “inhibition rate, Hs-KMO cell-free assay” value ([1]; conc 1 μM, duplicates) of the same molecule?
Answer: 77.715%

Question: What about the inhibition at 1 µM ([1]; conc 1 μM, duplicates, read-out: inhibition rate, Hs-KMO cell-free assay (Figure 1A source data)) of the same molecule?
Answer: 82.9%

Question: What about the “inhibition rate, Hs-KMO cell-free assay” value ([1]; conc 3 μM, duplicates) of the same molecule?
Answer: 95.862%

Question: And the inhibition at 3 µM ([1]; conc 3 μM, duplicates, read-out: inhibition rate, Hs-KMO cell-free assay (Figure 1A source data))?
Answer: 99.1%

Question: What about the “inhibition rate, Hs-KMO cell-free assay” value ([1]; conc 10 μM, duplicates) of the same molecule?
Answer: 92.894%

Question: And the inhibition at 10 µM ([1]; conc 10 μM, duplicates, read-out: inhibition rate, Hs-KMO cell-free assay (Figure 1A source data))?
Answer: 97.2%

Question: And the “inhibition rate, Hs-KMO cell-free assay” value ([1]; conc 30 μM, duplicates)?
Answer: 103.928%

Question: And the inhibition at 30 µM ([1]; conc 30 μM, duplicates, read-out: inhibition rate, Hs-KMO cell-free assay (Figure 1A source data))?
Answer: 104%

Question: And the “inhibition rate, Hs-KMO cell-free assay” value ([1]; conc 100 μM, duplicates)?
Answer: 96.422%

Question: And the inhibition at 100 µM ([1]; conc 100 μM, duplicates, read-out: inhibition rate, Hs-KMO cell-free assay (Figure 1A source data))?
Answer: 100%

Question: And the pIC50 ([2]; cell-free enzyme assay, high kynurenine)?
Answer: 6.24

Question: And the “inhibition rate, Rat-KMO cell-free assay (Figure 1B source data)” value (shortened to “inhibition rate, Rat-KMO cell-free assay”) ([2]; conc 0.03 μM, duplicates)?
Answer: 4.679% and 12.234%

Question: What about the “inhibition rate, Rat-KMO cell-free assay” value ([2]; conc 0.1 μM, duplicates) of the same molecule?
Answer: 19.657%

Question: What about the inhibition at 0.1 µM ([2]; conc 0.1 μM, duplicates, read-out: inhibition rate, Rat-KMO cell-free assay (Figure 1B source data)) of the same molecule?
Answer: 16%

Question: What about the “inhibition rate, Rat-KMO cell-free assay” value ([2]; conc 0.3 μM, duplicates) of the same molecule?
Answer: 35.882%

Question: And the inhibition at 0.3 µM ([2]; conc 0.3 μM, duplicates, read-out: inhibition rate, Rat-KMO cell-free assay (Figure 1B source data))?
Answer: 39.2%

Question: What about the “inhibition rate, Rat-KMO cell-free assay” value ([2]; conc 1 μM, duplicates) of the same molecule?
Answer: 64.963%

Question: What about the inhibition at 1 µM ([2]; conc 1 μM, duplicates, read-out: inhibition rate, Rat-KMO cell-free assay (Figure 1B source data)) of the same molecule?
Answer: 63.5%

Question: And the “inhibition rate, Rat-KMO cell-free assay” value ([2]; conc 3 μM, duplicates)?
Answer: 78.325%

Question: And the inhibition at 3 µM ([2]; conc 3 μM, duplicates, read-out: inhibition rate, Rat-KMO cell-free assay (Figure 1B source data))?
Answer: 81.5%

Question: What about the “inhibition rate, Rat-KMO cell-free assay” value ([2]; conc 10 μM, duplicates) of the same molecule?
Answer: 86.225%

Question: What about the inhibition at 10 µM ([2]; conc 10 μM, duplicates, read-out: inhibition rate, Rat-KMO cell-free assay (Figure 1B source data)) of the same molecule?
Answer: 85.2%

Question: And the “inhibition rate, Rat-KMO cell-free assay” value ([2]; conc 30 μM, duplicates)?
Answer: 94.681%

Question: And the inhibition at 30 µM ([2]; conc 30 μM, duplicates, read-out: inhibition rate, Rat-KMO cell-free assay (Figure 1B source data))?
Answer: 95.7%

Question: What about the “inhibition rate, Rat-KMO cell-free assay” value ([2]; conc 100 μM, duplicates) of the same molecule?
Answer: 91.129%

Question: And the inhibition at 100 µM ([2]; conc 100 μM, duplicates, read-out: inhibition rate, Rat-KMO cell-free assay (Figure 1B source data))?
Answer: 88.8%

Question: And the inhibition at 0.1 µM ([3]; HEK293, conc 0.1 μM, duplicates, read-out: inhibition rate, Hs-KMO cellular assay (Figure 1C source data))?
Answer: 17%

Question: And the inhibition at 0.3 µM ([3]; HEK293, conc 0.3 μM, duplicates, read-out: inhibition rate, Hs-KMO cellular assay (Figure 1C source data))?
Answer: 33.6%

Question: What about the inhibition at 1 µM ([3]; HEK293, conc 1 μM, duplicates, read-out: inhibition rate, Hs-KMO cellular assay (Figure 1C source data)) of the same molecule?
Answer: 60.2%

Question: What about the inhibition at 3 µM ([3]; HEK293, conc 3 μM, duplicates, read-out: inhibition rate, Hs-KMO cellular assay (Figure 1C source data)) of the same molecule?
Answer: 88.1%

Question: And the inhibition at 10 µM ([3]; HEK293, conc 10 μM, duplicates, read-out: inhibition rate, Hs-KMO cellular assay (Figure 1C source data))?
Answer: 100%

Question: What about the inhibition at 30 µM ([3]; HEK293, conc 30 μM, duplicates, read-out: inhibition rate, Hs-KMO cellular assay (Figure 1C source data)) of the same molecule?
Answer: 104%

Question: What about the pIC50 ([3]; HEK293 cells expressing human KMO, LC/MS, read-out: Human cell-based assay IC50) of the same molecule?
Answer: 6.24

Question: What about the “inhibition rate, Hs-KMO cellular assay (Figure 1C source data)” value (“inhibition rate, Hs-KMO cellular assay” for short) ([3]; conc 0.03 μM, duplicates) of the same molecule?
Answer: 1.868% and 10.412%

Question: What about the “inhibition rate, Hs-KMO cellular assay” value ([3]; conc 0.1 μM, duplicates) of the same molecule?
Answer: 14.953%

Question: What about the “inhibition rate, Hs-KMO cellular assay” value ([3]; conc 0.3 μM, duplicates) of the same molecule?
Answer: 36.860%

Question: And the “inhibition rate, Hs-KMO cellular assay” value ([3]; conc 1 μM, duplicates)?
Answer: 55.900%

Question: And the “inhibition rate, Hs-KMO cellular assay” value ([3]; conc 3 μM, duplicates)?
Answer: 85.656%

Question: What about the “inhibition rate, Hs-KMO cellular assay” value ([3]; conc 10 μM, duplicates) of the same molecule?
Answer: 99.963%

Question: And the “inhibition rate, Hs-KMO cellular assay” value ([3]; conc 30 μM, duplicates)?
Answer: 103.556%

Question: And the inhibition at 0.03 µM ([4]; HEK293, conc 0.03 μM, duplicates, read-out: inhibition rate, Rat-KMO cellular assay (Figure 1D source data))?
Answer: 4.96%

Question: And the inhibition at 0.1 µM ([4]; HEK293, conc 0.1 μM, duplicates, read-out: inhibition rate, Rat-KMO cellular assay (Figure 1D source data))?
Answer: 0.969%

Question: And the inhibition at 0.3 µM ([4]; HEK293, conc 0.3 μM, duplicates, read-out: inhibition rate, Rat-KMO cellular assay (Figure 1D source data))?
Answer: 4.27%

Question: And the inhibition at 3 µM ([4]; HEK293, conc 3 μM, duplicates, read-out: inhibition rate, Rat-KMO cellular assay (Figure 1D source data))?
Answer: 20.1%

Question: What about the inhibition at 10 µM ([4]; HEK293, conc 10 μM, duplicates, read-out: inhibition rate, Rat-KMO cellular assay (Figure 1D source data)) of the same molecule?
Answer: 58.4%

Question: And the inhibition at 30 µM ([4]; HEK293, conc 30 μM, duplicates, read-out: inhibition rate, Rat-KMO cellular assay (Figure 1D source data))?
Answer: 87.7%

Question: And the pIC50 ([4]; HEK293 cells expressing rat KMO, LC/MS)?
Answer: 5.14

Question: What about the “inhibition rate, Rat-KMO cellular assay (Figure 1D source data)” value (shortened to “inhibition rate, Rat-KMO cellular assay”) ([4]; conc 0.03 μM, duplicates) of the same molecule?
Answer: 3.155%

Question: And the “inhibition rate, Rat-KMO cellular assay” value ([4]; conc 0.1 μM, duplicates)?
Answer: 1.853%

Question: And the “inhibition rate, Rat-KMO cellular assay” value ([4]; conc 0.3 μM, duplicates)?
Answer: 6.904%

Question: And the “inhibition rate, Rat-KMO cellular assay” value ([4]; conc 3 μM, duplicates)?
Answer: 21.339%

Question: What about the “inhibition rate, Rat-KMO cellular assay” value ([4]; conc 10 μM, duplicates) of the same molecule?
Answer: 59.197%

Question: And the “inhibition rate, Rat-KMO cellular assay” value ([4]; conc 30 μM, duplicates)?
Answer: 87.499%
